Data: PubChem BioAssay AID200 (DTP/NCI, 2004)
Several values for one entry are separate records, joined by “and”; a condition that tells them apart may be missing. Identical values can stand only once. Toxic doses and inconclusive results are not listed.

Test system: B6C3F1 mice, B16 melanoma ip, median survival T/C
Assay: NCI In Vivo Anticancer Drug Screen. Data for tumor model B16 Melanoma (intraperitoneal) in B6C3F1 mice
Details: endpoint: median survival time, higher = longer survival
In short: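 Tumor-bearing mice received test compound; a separate group got vehicle only. Survival was then compared, with results reported as treated over control.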

C[C@@]1(CO)[C@H](O)CC[C@@]2(C)[C@H]1CC[C@H]1C[C@@H]3C[C@@]12CC[C@@]3(O)COC(=O)CN
T/C (dose: 0.02 mg/kg/injection, schedule: Q01DX009 (ip), vehicle: saline + alcohol): 98 % of control | T/C (dose: 0.37 mg/kg/injection, schedule: Q01DX009 (ip), vehicle: saline + alcohol): 94 % of control | T/C (dose: 0.4 mg/kg/injection, schedule: Q01DX009 (ip), vehicle: saline + alcohol): 102 % of control | T/C (dose: 0.75 mg/kg/injection, schedule: Q01DX009 (ip), vehicle: saline + alcohol): 98 % of control | T/C (dose: 0.8 mg/kg/injection, schedule: Q01DX009 (ip), vehicle: saline + alcohol): 124 % of control | T/C (dose: 1.5 mg/kg/injection, schedule: Q01DX009 (ip), vehicle: saline + alcohol): 101 % of control | T/C (dose: 1.6 mg/kg/injection, schedule: Q01DX009 (ip), vehicle: saline + alcohol): 101 % of control | T/C (dose: 1.7 mg/kg/injection, schedule: Q01DX005 (iv), vehicle: saline + alcohol): 108 % of control | T/C (dose: 2.1 mg/kg/injection, schedule: Q01DX001 (iv), vehicle: saline + alcohol): 111 % of control | T/C (dose: 2.1 mg/kg/injection, schedule: Q03HX008 (ip), vehicle: saline + alcohol): 120 % of control | T/C (dose: 2.8 mg/kg/injection, schedule: Q03HX024 (ip), vehicle: saline + alcohol): 97 % of control | T/C (dose: 3.0 mg/kg/injection, schedule: Q01DX009 (ip), vehicle: saline + alcohol): 102 % of control | T/C (dose: 3.4 mg/kg/injection, schedule: Q01DX005 (iv), vehicle: saline + alcohol): 99 % of control | T/C (dose: 4.2 mg/kg/injection, schedule: Q01DX001 (iv), vehicle: saline + alcohol): 103 % of control | T/C (dose: 4.2 mg/kg/injection, schedule: Q03HX008 (ip), vehicle: saline + alcohol): 119 % of control | T/C (dose: 5.0 mg/kg/injection, schedule: Q03HX027 (ip), vehicle: saline + alcohol): 113 % of control and 105 % of control and 107 % of control | T/C (dose: 5.0 mg/kg/injection, schedule: Q03HX027 (sc), vehicle: saline + alcohol): 109 % of control | T/C (dose: 5.6 mg/kg/injection, schedule: Q03HX024 (ip), vehicle: saline + alcohol): 116 % of control | T/C (dose: 6.0 mg/kg/injection, schedule: Q01DX009 (ip), vehicle: saline + alcohol): 93 % of control | T/C (dose: 6.75 mg/kg/injection, schedule: Q01DX005 (ip), vehicle: saline + alcohol): 95 % of control | T/C (dose: 6.8 mg/kg/injection, schedule: Q01DX005 (iv), vehicle: saline + alcohol): 96 % of control | T/C (dose: 8.4 mg/kg/injection, schedule: Q03HX008 (ip), vehicle: saline + alcohol): 114 % of control | T/C (dose: 8.5 mg/kg/injection, schedule: Q01DX001 (iv), vehicle: saline + alcohol): 109 % of control | T/C (dose: 10.0 mg/kg/injection, schedule: Q03HX027 (ip), vehicle: saline + alcohol): 117 % of control and 123 % of control | T/C (dose: 10.0 mg/kg/injection, schedule: Q03HX027 (sc), vehicle: saline): 102 % of control | T/C (dose: 12.5 mg/kg/injection, schedule: Q01DX009 (ip), vehicle: saline + alcohol): 111 % of control and 120 % of control | T/C (dose: 13.5 mg/kg/injection, schedule: Q01DX005 (ip), vehicle: saline + alcohol): 104 % of control | T/C (dose: 15.0 mg/kg/injection, schedule: Q01DX009 (ip), vehicle: saline + alcohol): 116 % of control | T/C (dose: 16.8 mg/kg/injection, schedule: Q03HX008 (ip), vehicle: saline + alcohol): 114 % of control | T/C (dose: 16.9 mg/kg/injection, schedule: Q01DX001 (ip), vehicle: saline + alcohol): 103 % of control | T/C (dose: 16.9 mg/kg/injection, schedule: Q01DX001 (iv), vehicle: saline + alcohol): 103 % of control | T/C (dose: 20.0 mg/kg/injection, schedule: Q03HX027 (ip), vehicle: saline + alcohol): 162 % of control | T/C (dose: 20.0 mg/kg/injection, schedule: Q03HX027 (sc), vehicle: saline + alcohol): 108 % of control | T/C (dose: 20.0 mg/kg/injection, schedule: Q03HX027 (sc), vehicle: saline): 100 % of control | T/C (dose: 22.5 mg/kg/injection, schedule: Q04DX003 (ip), vehicle: saline + alcohol): 98 % of control | T/C (dose: 25.0 mg/kg/injection, schedule: Q01DX009 (ip), vehicle: saline + alcohol): 121 % of control and 122 % of control | T/C (dose: 27.0 mg/kg/injection, schedule: Q01DX005 (ip), vehicle: saline + alcohol): 124 % of control | T/C (dose: 27.0 mg/kg/injection, schedule: Q01DX005 (iv), vehicle: saline + alcohol): 105 % of control | T/C (dose: 30.0 mg/kg/injection, schedule: Q01DX009 (ip), vehicle: saline + alcohol): 124 % of control | T/C (dose: 30.0 mg/kg/injection, schedule: Q01DX009 (oral), vehicle: saline + alcohol): 115 % of control | T/C (dose: 33.7 mg/kg/injection, schedule: Q03HX008 (ip), vehicle: saline + alcohol): 115 % of control | T/C (dose: 33.8 mg/kg/injection, schedule: Q01DX001 (ip), vehicle: saline + alcohol): 110 % of control | T/C (dose: 33.8 mg/kg/injection, schedule: Q01DX001 (iv), vehicle: saline + alcohol): 115 % of control | T/C (dose: 40.0 mg/kg/injection, schedule: Q03HX027 (ip), vehicle: saline + alcohol): 175 % of control and 176 % of control | T/C (dose: 40.0 mg/kg/injection, schedule: Q03HX027 (sc), vehicle: saline + alcohol): 98 % of control | T/C (dose: 40.0 mg/kg/injection, schedule: Q03HX027 (sc), vehicle: saline): 102 % of control | T/C (dose: 45.0 mg/kg/injection, schedule: Q04DX003 (ip), vehicle: saline + alcohol): 92 % of control | T/C (dose: 50.0 mg/kg/injection, schedule: Q01DX009 (ip), vehicle: saline + alcohol): 151 % of control | T/C (dose: 54.0 mg/kg/injection, schedule: Q01DX005 (ip), vehicle: saline + alcohol): 113 % of control | T/C (dose: 54.0 mg/kg/injection, schedule: Q01DX005 (iv), vehicle: saline + alcohol): 115 % of control | T/C (dose: 60.0 mg/kg/injection, schedule: Q01DX009 (oral), vehicle: saline + alcohol): 117 % of control | T/C (dose: 67.5 mg/kg/injection, schedule: Q01DX001 (ip), vehicle: saline + alcohol): 104 % of control | T/C (dose: 67.5 mg/kg/injection, schedule: Q01DX001 (iv), vehicle: saline + alcohol): 105 % of control | T/C (dose: 80.0 mg/kg/injection, schedule: Q03HX027 (sc), vehicle: saline + alcohol): 121 % of control | T/C (dose: 80.0 mg/kg/injection, schedule: Q03HX027 (sc), vehicle: saline): 102 % of control | T/C (dose: 90.0 mg/kg/injection, schedule: Q04DX003 (ip), vehicle: saline + alcohol): 91 % of control | T/C (dose: 240.0 mg/kg/injection, schedule: Q01DX009 (oral), vehicle: saline + alcohol): 114 % of control | T/C (dose: 36.0 micrograms per hour, schedule: Q#X X216 (sc), vehicle: saline): 100 % of control | T/C (dose: 72.0 micrograms per hour, schedule: Q#X X216 (sc), vehicle: saline): 102 % of control | T/C (dose: 144.0 micrograms per hour, schedule: Q#X X216 (sc), vehicle: saline): 118 % of control

COc1cccc2c1C(=O)c1c(O)c3c(c(O)c1C2=O)C[C@@](O)(/C(C)=N\O)C[C@@H]3OC1CC(N)C(O)C(C)O1 (stereo partly specified)
T/C (dose: 1.5 mg/kg/injection, schedule: Q01DX009 (ip), vehicle: saline): 160 % of control | T/C (dose: 3.13 mg/kg/injection, schedule: Q01DX009 (ip), vehicle: water): 150 % of control | T/C (dose: 6.0 mg/kg/injection, schedule: Q01DX009 (ip), vehicle: saline): 164 % of control | T/C (dose: 6.25 mg/kg/injection, schedule: Q01DX009 (ip), vehicle: water): 182 % of control | T/C (dose: 12.0 mg/kg/injection, schedule: Q01DX009 (ip), vehicle: saline): 217 % of control | T/C (dose: 12.5 mg/kg/injection, schedule: Q01DX009 (ip), vehicle: water): 178 % of control | T/C (dose: 24.0 mg/kg/injection, schedule: Q01DX009 (ip), vehicle: saline): 204 % of control

CCCC(=O)O.CCCC(=O)O.CCCC(=O)O.CCCC(=O)O.[Rh].[Rh]
T/C (dose: 0.03 mg/kg/injection, schedule: Q01DX009 (ip), vehicle: saline + alcohol): 100 % of control and 101 % of control | T/C (dose: 0.06 mg/kg/injection, schedule: Q01DX009 (ip), vehicle: saline + alcohol): 103 % of control and 104 % of control | T/C (dose: 0.12 mg/kg/injection, schedule: Q01DX009 (ip), vehicle: saline + alcohol): 100 % of control and 107 % of control | T/C (dose: 0.25 mg/kg/injection, schedule: Q01DX009 (ip), vehicle: saline + alcohol): 98 % of control and 101 % of control | T/C (dose: 0.5 mg/kg/injection, schedule: Q01DX009 (ip), vehicle: saline + alcohol): 101 % of control and 104 % of control | T/C (dose: 1.0 mg/kg/injection, schedule: Q01DX009 (ip), vehicle: saline + alcohol): 108 % of control

CCCCCCCOc1ccc(C(=O)O)cc1
T/C (dose: 12.5 mg/kg/injection, schedule: Q01DX009 (ip), vehicle: Klucel (hydroxypropylcellulose) (HPC)): 106 % of control | T/C (dose: 25.0 mg/kg/injection, schedule: Q01DX009 (ip), vehicle: Klucel (hydroxypropylcellulose) (HPC)): 108 % of control | T/C (dose: 50.0 mg/kg/injection, schedule: Q01DX009 (ip), vehicle: Klucel (hydroxypropylcellulose) (HPC)): 114 % of control
